Reference: patent publication US20120328721A1, “ALOE VERA SPROUT CONCENTRATE OR EXTRACT HAVING SUPERIOR SKIN CELL GROWTH PROMOTION, ANTIOXIDANT, AND ANTI-ALLERGY EFFECTS” (l, priority 2009, published 2012)

Test system: type I collagen mRNA
Assay: Promotion of collagen synthesis (type I collagen mRNA, RT-PCR)
Format: cell-based
Details: positive control vitamin C 100 μg/ml
Protocol: To evaluate the inhibitory activity against MMP-1 gene expression of Aloe vera shoot concentrate, the change of mRNA expression was measured. RNA was extracted by using Trizol (Invitrogen, USA) according to the guanidium thiocyanate-phenol-chloroform extraction method, and then RT-PCR was carried out by using an All-in-one RT-PCR kit (SuperBio, Korea). PCR (reverse transcription at 50° C. for 30 minutes, inactivation of reverse transcriptase at 96° C. for 3 minutes, 25 cycles of 94° C. for 1 minute, 48° C. for 1 minute and 72° C. for 1 minute) was carried out by using an MMP-1 primer of Table 9, and actin was used as a control group. To evaluate the activity for the promotion of collagen synthesis of Aloe vera shoot concentrate, the expression of collagen mRNA was measured. RT-PCR was carried out with the same method as Experimental Example 9 except that the condition was 30 cycles of 94° C. for 1 minute, 62° C. for 1 minute and 72 ° C. for 1 minute, and collagen primer of Table 11 was used.

## O=C1O[C@H]([C@@H](O)CO)C(O)=C1O [vitamin C]
Column 100 μg/ml
  Type I collagen expression amount (%): 131.1%
Column 200 μg/ml
  Type I collagen expression amount (%): 156.3%
